The results in this text go back to ChEMBL document CHEMBL5154820 (Eur J Med Chem, 2022).

Series [1] deals with HeLa. The series can be described thus: Induction of apoptosis in human HeLa cells assessed as viable cells at 0.1 uM measured after 24 hrs by Annexin V-FITC/7-AAD staining based flow cytometric analysis (reference value: 70.1%). The format is functional. The settings on record: read-out: Activity.
A short description of series [2]: Nephrotoxicity in BABL/c mouse assessed as increased uric acid level at 30 mg/kg, ip administered daily for 21 days followed by addition of 3 mg/kg DDP for every 2 days relative to vehicle. The format is toxicity, organism-based. The settings on record: in vivo, 504 h, time 21 day.
Series [3] deals with HeLa. The series can be described thus: Induction of apoptosis in human HeLa cells assessed as necrotic cells at 0.4 uM measured after 24 hrs by Annexin V-FITC/7-AAD staining based flow cytometric analysis (reference value: 0.56%). The format is functional. On the technique in general: A flow cytometer gives signals particle by particle.
The subject of series [4] is HeLa. The series can be described thus: Potency index, ratio of cisplatin IC50 to test compound IC50 for cytotoxicity against human DDP resistant HeLa cells. The format is functional.
A short description of series [5]: Nephrotoxicity in BABL/c mouse assessed as increased urea nitrogen level at 30 mg/kg, ip administered daily for 21 days followed by addition of 3 mg/kg DDP for every 2 days relative to vehicle. The format is toxicity, organism-based. The settings on record: in vivo, 504 h, time 21 day.
For series [6], the system named is HeLa. In words: Induction of cell cycle arrest in human HeLa cells assessed as >4N cells at 0.4 uM measured after 24 hrs by propidium iodide staining based flow cytometric analysis analysis ( Rvb = 8.84%). The format is functional.
Series [7] can be described thus: Cmax in C57 nude mouse at 30 mg/kg, ip measured at 0.083 to 24 hrs by LC/MS/MS analysis. The format is ADME, organism-based. Details: dose 30 mg/kg, time 0.083-24 hrs, route ip. The settings on record: in vivo.
Series [8] in a line: Nephrotoxicity in BABL/c mouse assessed as increased creatinine level at 60 mg/kg, ip administered daily for 21 days relative to vehicle. The settings on record: in vivo, 504 h, time 21 day. The format is toxicity, organism-based.
In series [9] the test system is HeLa. The series can be described thus: Induction of apoptosis in human HeLa cells assessed as necrotic cells at 0.1 uM measured after 24 hrs by Annexin V-FITC/7-AAD staining based flow cytometric analysis (reference value: 0.56%). The format is functional.
The subject of series [10] is HeLa. The series can be described thus: Induction of cell cycle arrest in human HeLa cells assessed as 2N cells at 0.4 uM measured after 24 hrs by propidium iodide staining based flow cytometric analysis analysis ( Rvb = 47.4%). The format is functional.
A further series deals with Tubulin (Homo sapiens) (UniProt P68371+Q9H4B7+P0DPH7+P68366+Q13509+Q71U36+P04350+Q3ZCM7+P07437+P68363+Q9BQE3+Q6PEY2+Q13885+Q9BVA1+Q9BUF5). The series can be described thus: Induction of microtubule disruption in human HeLa cells assessed as loss of formation of cell membrane rounding at 0.1 to 0.2 uM measured after 24 hrs by DAPI staining based laser scanning confocal microscopic analysis. The settings on record: dose 0.1-0.2 µM, DDE = dose-dependent effect.

The subject of series [11] is HeLa. In words: Antitumor activity against human HeLa cells xenografted in BABL/c mouse assessed assessed as reduction in tumor volume at 30 mg/kg, ip administered daily for 21 days followed by addition of 3 mg/kg DDP for every 2 days and measured every 3 days ( Rvb = 2336 mm3). The format is functional. The settings on record: time 21 day.
Series [12] in a line: Acute toxicity against ICR mouse assessed as inflammatory cell infiltration in kidney at 1000 mg/kg, ip measured after 14 days by H and E staining method. The format is organism-based. The settings on record: in vivo, 336 h, time 14 day.
A short description of series [13]: Acute toxicity against ICR mouse assessed as morphological changes in heart at 1000 mg/kg, ip measured after 14 days by H and E staining method. The settings on record: in vivo, 336 h, time 14 day. The format is organism-based.
A short description of series [14]: Acute toxicity in ICR female mouse assessed as body weight gain at 100 to 1000 mg/kg, ip measured daily for 14 days. The format is organism-based. The settings on record: in vivo, 336 h, dose 100-1000 mg/kg, time 14 day.
Series [15] relates to HeLa. In words: Induction of cell cycle arrest in human HeLa cells assessed as S-phase at 0.1 uM measured after 24 hrs by propidium iodide staining based flow cytometric analysis analysis ( Rvb = 15.5%). The format is functional.
Series [16] is described as follows: Acute toxicity against ICR mouse assessed as morphological changes in spleen at 1000 mg/kg, ip measured after 14 days by H and E staining method. The format is organism-based. The settings on record: in vivo, 336 h, time 14 day.
Series [17] is described as follows: Toxicity against BABL/c mouse assessed as morphological changes in spleen at 30 to 60 mg/kg, ip administered daily for 21 days by H and E staining method. The format is organism-based. The settings on record: in vivo, 504 h, dose 30-60 mg/kg, time 21 day.
The nature of series [18]: Toxicity against BABL/c mouse assessed as morphological changes in kidney at 30 mg/kg, ip administered daily for 21 days followed by addition of 3 mg/kg DDP for every 2 days by H and E staining method. The format is organism-based. The settings on record: in vivo, 504 h, time 21 day.
For series [19], the target named is Tubulin beta (Homo sapiens) (UniProt P68371+Q9H4B7+Q13509+P04350+Q3ZCM7+P07437+Q13885+Q9BVA1+Q9BUF5+A6NNZ2). In words: Binding affinity to beta-tubulin colchicine binding site in human HeLa cells assessed as inhibition of EBI-beta-tubulin adduct formation measured at 1 to 100 uM incubated for 2 hrs followed by addition of EBI measured after 1.5 hrs by EBI competition based Western blotting analysis. The settings on record: dose 1-100 µM, time 3.5 hrs, DDE = dose-dependent effect. The format is cell-based. On the technique in general: Immunoblotting shows a protein as a band on a membrane.

A short description of series [20]: Resistant factor, ratio of IC50 for antiproliferative activity against human HeLa/DDP cells to IC50 for human HeLa cells. The format is functional.
The next series deals with Tubulin (Sus scrofa) (UniProt P02554+P02550). The series can be described thus: Inhibition of pig brain tubulin polymerization at 6 uM by spectrophotometer analysis relative to control. Set-up: scale not given: the % may be the effect or the level left. The settings on record: Sus scrofa domesticus.
Series [21] deals with HeLa. The series can be described thus: Induction of cell cycle arrest in human HeLa cells assessed as S-phase at 1.5 nM measured after 24 hrs by propidium iodide staining based flow cytometric analysis analysis ( Rvb = 23.4%). The format is functional.
The test system of series [22] is HeLa. In words: Induction of cell cycle arrest in human HeLa cells assessed as S-phase at 6 nM measured after 24 hrs by propidium iodide staining based flow cytometric analysis analysis ( Rvb = 23.4%). The format is functional.
Series [23] concerns HeLa. The series can be described thus: Induction of apoptosis in human HeLa cells assessed as viable cells at 1.5 nM measured after 24 hrs by Annexin V-FITC/7-AAD staining based flow cytometric analysis (reference value: 75.5%). The format is functional. The settings on record: read-out: Activity.
Series [24] has as its system HeLa. In words: Induction of cell cycle arrest in human HeLa cells assessed as accumulation of cells at G2/M phase at 1.5 nM after 24 hrs by propidium iodide staining based flow cytometric analysis (reference value: 17.1%). The format is functional.
The species named for the next series is Bos taurus. In words: Inhibition of calf brain tubulin polymerization upto 50 uM measured after 40 mins by spectrophotometric analysis. The settings on record: DDE = dose-dependent effect.
The subject of series [25] is HeLa. The series can be described thus: Induction of cell cycle arrest in human HeLa cells assessed as S-phase at 3 nM measured after 24 hrs by propidium iodide staining based flow cytometric analysis analysis ( Rvb = 23.4%). The format is functional.
Series [26] has as its system HeLa. In words: Induction of apoptosis in human HeLa cells assessed as late apoptotic cells at 3 nM measured after 24 hrs by Annexin V-FITC/7-AAD staining based flow cytometric analysis (reference value: 5.22%). The format is functional.
In series [27] the test system is HeLa. The series can be described thus: Induction of cell cycle arrest in human HeLa cells assessed as accumulation of cells at G2/M phase at 3 nM after 24 hrs by propidium iodide staining based flow cytometric analysis (reference value: 17.1%). The format is functional.
Series [28] has as its system HeLa. In words: Induction of cell cycle arrest in human HeLa cells assessed as 4N cells at 6 nM measured after 24 hrs by propidium iodide staining based flow cytometric analysis analysis ( Rvb = 17.1%). The format is functional.

Tubulin (Sus scrofa), sequence (P02550 whole entry, looked up): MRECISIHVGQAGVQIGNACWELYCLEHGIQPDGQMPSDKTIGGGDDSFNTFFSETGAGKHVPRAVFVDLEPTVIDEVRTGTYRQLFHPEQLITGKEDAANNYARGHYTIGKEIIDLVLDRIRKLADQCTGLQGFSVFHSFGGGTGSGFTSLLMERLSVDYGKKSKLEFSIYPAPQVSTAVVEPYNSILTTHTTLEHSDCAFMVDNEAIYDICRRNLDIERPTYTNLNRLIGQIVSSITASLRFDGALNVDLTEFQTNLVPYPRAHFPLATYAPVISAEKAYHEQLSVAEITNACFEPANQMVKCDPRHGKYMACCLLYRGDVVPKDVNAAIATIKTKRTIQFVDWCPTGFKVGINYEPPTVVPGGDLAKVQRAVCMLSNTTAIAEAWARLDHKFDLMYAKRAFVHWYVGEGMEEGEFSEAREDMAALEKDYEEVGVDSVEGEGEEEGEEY
Tubulin (Sus scrofa), sequence (P02554 whole entry, looked up): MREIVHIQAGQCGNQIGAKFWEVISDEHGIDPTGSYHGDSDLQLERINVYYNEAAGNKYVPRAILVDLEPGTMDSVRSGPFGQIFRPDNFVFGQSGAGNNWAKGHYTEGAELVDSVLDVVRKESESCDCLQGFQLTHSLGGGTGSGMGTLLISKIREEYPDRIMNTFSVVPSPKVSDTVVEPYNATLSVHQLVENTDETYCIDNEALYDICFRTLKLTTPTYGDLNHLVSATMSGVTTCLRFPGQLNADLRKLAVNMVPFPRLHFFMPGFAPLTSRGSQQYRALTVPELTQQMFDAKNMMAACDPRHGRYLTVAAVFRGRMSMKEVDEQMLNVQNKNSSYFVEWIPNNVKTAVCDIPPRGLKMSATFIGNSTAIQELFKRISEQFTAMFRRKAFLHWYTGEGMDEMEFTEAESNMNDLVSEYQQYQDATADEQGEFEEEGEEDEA

As for `CCOc1ccc(-c2cncnc2-c2cc(OC)c(OC)c(OC)c2)cc1Cl`, the viability at 0.1 µM with HeLa [1] worked out at 56.3%. In addition, the Activity in series [2] came out at 16%; in the series on HeLa [3], 0.11%; in series [5], 1.3%; with HeLa [6] it was 1.58%; in series [8], 23%; in the series with HeLa [9], 0.5%. Moreover, the Activity in the series on HeLa [10] was 7.03%; at Tubulin (Homo sapiens) it was “Dde”; in the series with HeLa [11] it was 724 mm3; in series [12] it was “Non-Toxic”; in [13] it was “Non-Toxic”; in [14], 3.88 g. Moreover, the Activity with HeLa [15] is 13%; in series [16], “Non-Toxic”; in series [17], “Non-Toxic”; in [18], “Non-Toxic”; in series [19] it was “Dde”; at Tubulin (Sus scrofa), 54%. In addition, the “Ratio IC50” value was determined as 2.7 with HeLa [4] and 79.2 in series [20]. The peak level in series [7] (Cmax) was 6.21 µg/mL.

Take `COc1ccc(/C=C\c2cc(OC)c(OC)c(OC)c2)cc1O` [COMBRETASTATIN A4]: the Activity was 12% with HeLa [21]; 15.9% with HeLa [22]; 22.5% in the series with HeLa [24]; 12.1% in the series with HeLa [25]; 10.8% in the series on HeLa [26]; 28.2% in the series with HeLa [27]. For the same compound, the Activity with HeLa [28] worked out at 35.3%. Also, in the series on HeLa [23], the viability at 0.0015 µM is 68.9%. Further, in the series filed under Bos taurus, the inhibition entry is “Dde”.
